Drawing on US20250263408A1 (Uniquest Pty Ltd, priority 2022, published 2025), this text covers IC50 and EC50 for 26 compounds.

By IC50 is commonly meant the point on the concentration scale where inhibition reaches its midpoint. Usually EC50 stands for the midpoint of the concentration-response curve. A low value points to higher potency in that assay.

For one experiment, the target named is T1, Syk (Homo sapiens, UniProt P43405).
T1 construct: purchased Promega
Description: Syk Biochemical Assay (ADP-Glo luminescence). As to conditions: ATP 40 μM final, 60 minutes, read-out: SYK Biochem IC50.

The subject of experiment [1] is Ba/F3-WT (wild type) cells. Briefly: Ba/F3 Proliferation Assay, Ba/F3-WT (wild type) cells with mIL-3 (Resazurin). Type of experiment: cell-based. Conditions: Mus musculus, BaF3, 48 h, Ba/F3-WT cells +mIL-3, 48-hour incubation. On the technique in general: The colour change of resazurin is a common sign of viable cells or microbes.
For the next experiment, the target named is T2, Ba/F3-Syk cells (Homo sapiens, UniProt P43405).
T2 construct: fused on or other part: Possible but unprinted fusion partner: TEL (ETV6), the usual partner for Ba/F3 lines transformed by Syk; Nothing on a partner is printed
Briefly: Ba/F3 Proliferation Assay, Ba/F3-Syk cells (Resazurin). As to conditions: 48-hour incubation. Type of experiment: cell-based.

Structures are written as SMILES. Bounds are passed on as bounds.

Regarding `CCn1cc(-c2cc3ncccc3c(OC[C@@H]3CNCCO3)n2)cn1` [Compound 2.6, 7-(1-ethyl-1H-pyrazol-4-yl)-5-{[(2S)-morpholin-2-yl]methoxy}-1,6-naphthyridine], at Syk, the IC50 worked out at 15.6 nM. Moreover, the results for the EC50 (in experiment [1]; at Ba/F3-Syk cells) were 1530 nM and 57.2 nM, respectively.
Take `COCCn1cc(-c2cc3ncccc3c(OC[C@@H]3CNCCO3)n2)cn1` [Compound 2.8, 7-[1-(2-methoxyethyl)-1H-pyrazol-4-yl]-5-{[(2S)-morpholin-2-yl]methoxy}-1,6-naphthyridine]: the concentration for half-maximal inhibition (IC50) on Syk came out at 37.4 nM. Further, the EC50 in experiment [1] turned out to be 1440 nM; at Ba/F3-Syk cells it was 196 nM.
Consider `CC(C)n1cc(-c2cc(OC[C@@H]3CNCC4(CCC4)O3)c3cccnc3c2)cn1` [Compound 11.8, 5-{[(6S)-5-oxa-8-azaspiro[3.5]nonan-6-yl]methoxy}-7-[1-(propan-2-yl)-1H-pyrazol-4-yl]quinoline], for which, at Syk, the IC50 is 14.7 nM. Besides, the EC50 in experiment [1] worked out at 551 nM; on Ba/F3-Syk cells, 7.4 nM.
Taken in the same sequence, the figures for `C[C@@H]1CNC[C@@H](COc2cc(-c3ccn(C(C)(C)C)c3)cc3nccnc23)O1` [Compound 12.8, 7-(1-tert-butyl-1H-pyrrol-3-yl)-5-{[(2S,6R)-6-methylmorpholin-2-yl]methoxy}quinoxaline] were 5.1 nM, 703 nM and 1.3 nM.
Taken in the same sequence, the figures for `CC(C)(C)n1ccc(-c2cc(OC[C@@H]3CNCCO3)c3cccnc3c2)c1` [Compound 3.15, 7-(1-tert-butyl-1H-pyrrol-3-yl)-5-{[(2S)-morpholin-2-yl]methoxy}quinoline] were 39.6 nM, 5840 nM and 30.4 nM.
In the case of `COCCn1ccc(-c2cc3ncccc3c(OC[C@@H]3CNCC4(CC4)O3)n2)c1` [Compound 6.23, 7-[1-(2-methoxyethyl)-1H-pyrrol-3-yl]-5-{[(5S)-4-oxa-7-azaspiro[2.5]octan-5-yl]methoxy}-1,6-naphthyridine], the IC50 at Syk was 55.9 nM. Further, the EC50 in experiment [1] was found to be 2100 nM; on Ba/F3-Syk cells, 28.4 nM.
Turning to `CC(C)n1ccc(-c2cc(OC[C@@H]3CNCCO3)c3nccnc3c2)c1` [Compound 8.6, 5-{[(2S)-morpholin-2-yl]methoxy}-7-[1-(propan-2-yl)-1H-pyrrol-3-yl]quinoxaline], the IC50 at Syk worked out at 10.8 nM. The EC50 in experiment [1] worked out at 969 nM; on Ba/F3-Syk cells, 6.97 nM.
Consider `COCCn1ccc(-c2cc3ncccc3c(OC[C@@H]3CNCC(C)(C)O3)n2)c1` [Compound 6.16, 5-{[(2S)-6,6-dimethylmorpholin-2-yl]methoxy}-7-[1-(2-methoxyethyl)-1H-pyrrol-3-yl]-1,6-naphthyridine], for which the IC50 at Syk amounted to 28.4 nM. The EC50 was 3120 nM in experiment [1] and 41.9 nM at Ba/F3-Syk cells.
Taken in the same sequence, the figures for `CC(C)n1cc(-c2cc(OC[C@@H]3CNCCO3)c3cccnc3c2)cn1` [Compound 3.4, 5-{[(2S)-morpholin-2-yl]methoxy}-7-[1-(propan-2-yl)-1H-pyrazol-4-yl]quinoline] were 29.3 nM, 926 nM and 47.4 nM.
Take `CC1(C)CNC[C@@H](COc2cc(-c3cnn(C4CC4)c3)cc3ncccc23)O1` [Compound 3.8, 7-(1-cyclopropyl-1H-pyrazol-4-yl)-5-{[(2S)-6,6-dimethylmorpholin-2-yl]methoxy}quinoline]: at Syk, the IC50 was 23.7 nM. Besides, the concentration for a half-maximal effect (EC50) in experiment [1] was determined as 1970 nM; on Ba/F3-Syk cells it was 50.9 nM.
Take `CC1(C)CNC[C@@H](COc2nc(-c3ccn(C4COC4)c3)cc3ncccc23)O1` [Compound 6.25, 5-{[(2S)-6,6-dimethylmorpholin-2-yl]methoxy}-7-[1-(oxetan-3-yl)-1H-pyrrol-3-yl]-1,6-naphthyridine]: at Syk, the IC50 is 20.5 nM. Also, the EC50 in experiment [1] amounted to 1760 nM; at Ba/F3-Syk cells, 8.6 nM.
Consider `CC(C)n1ccc(-c2cc3ncccc3c(OC[C@@H]3CNCC4(CC4)O3)n2)c1` [Compound 6.22, 5-{[(5S)-4-oxa-7-azaspiro[2.5]octan-5-yl]methoxy}-7-[1-(propan-2-yl)-1-H-pyrrol-3-yl]-1,6-naphthyridine], for which the IC50 at Syk amounted to 14.3 nM. For the same compound, the EC50 in experiment [1] was determined as 2090 nM; at Ba/F3-Syk cells it was 11.2 nM.
On the same counts, the results for `CC1(C)CNC[C@@H](COc2nc(-c3ccn(C(C)(C)C)c3)cc3ncccc23)O1` [Compound 2.57, 7-(1-tert-butyl-1H-pyrrol-3-yl)-5-{[(2S)-6,6-dimethylmorpholin-2-yl]methoxy}-1,6-naphthyridine] are 10 nM, > 10000 nM and 21.6 nM.
On the same counts, the results for `COCn1cc(-c2cc3ncccc3c(OC[C@@H]3CNCCO3)n2)cn1` [Compound 2.9, 7-[1-(methoxymethyl)-1H-pyrazol-4-yl]-5-{[(2S)-morpholin-2-yl]methoxy}-1,6-naphthyridine] are 40.6 nM, 2360 nM and 187 nM.
Taken in the same sequence, the figures for `C[C@@H](Oc1nc(-c2cnn(C)c2)cc2ncccc12)[C@@H]1CNCCO1` [Compound 2.5, 7-(1-methyl-1H-pyrazol-4-yl)-5-[(1R)-1-[(2S)-morpholin-2-yl]ethoxy]-1,6-naphthyridine] were 38.9 nM, 2540 nM and 76.7 nM.
As to `CCc1ccnc2cc(-c3cnn(C(C)(C)C)c3)nc(OC[C@@H]3CNCC(C)(C)O3)c12` [Compound 14.14, 7-(1-tert-butyl-1H-pyrazol-4-yl)-5-{[(2S)-6,6-dimethylmorpholin-2-yl]methoxy}-4-ethyl-1,6-naphthyridine], on Syk, the IC50 amounted to 33.6 nM. In addition, the EC50 in experiment [1] was found to be 1100 nM; on Ba/F3-Syk cells it was 20.6 nM.
Taken in the same sequence, the figures for `c1cnc2cc(-c3ccn(C4COC4)c3)nc(OC[C@@H]3CNCCO3)c2c1` [Compound 6.11, 5-{[(2S)-morpholin-2-yl]methoxy}-7-[1-(oxetan-3-yl)-1H-pyrrol-3-yl]-1,6-naphthyridine] were 24.6 nM, 1680 nM and 30.7 nM.
Taken in the same sequence, the figures for `CC1(C)CNC[C@@H](COc2cc(-c3ccn(CC(F)F)c3)cc3ncccc23)O1` [Compound 7.6, 7-[1-(2,2-difluoroethyl)-1H-pyrrol-3-yl]-5-{[(2S)-6,6-dimethylmorpholin-2-yl]methoxy}quinoline] were 17.6 nM, 1770 nM and 28.5 nM.
On the same counts, the results for `C[C@@H]1CNC[C@@H](COc2nc(-c3cnn(C)c3)cc3ncccc23)O1` [Compound 2.76, 7-(1-methyl-1H-pyrazol-4-yl)-5-{[(2S,6R)-6-methylmorpholin-2-yl]methoxy}-1,6-naphthyridine] are 17.6 nM, 2760 nM and 44.8 nM.
For `CC(C)[C@H]1CNC[C@@H](COc2nc(-c3cnn(C(C)(C)C)c3)cc3ncccc23)O1` [Compound 2.104, 7-(1-tert-butyl-1H-pyrazol-4-yl)-5-{[(2S,6S)-6-(propan-2-yl)morpholin-2-yl]methoxy}-1,6-naphthyridine], the IC50 at Syk turned out to be 16.6 nM. Also, the EC50 is 1570 nM in experiment [1] and 33.1 nM on Ba/F3-Syk cells.
Take `Cn1cc(-c2cc3ncccc3c(OC[C@H]3CNCCO3)n2)cn1` [Compound 2.2, 7-(1-methyl-1H-pyrazol-4-yl)-5-{[(2R)-morpholin-2-yl]methoxy}-1,6-naphthyridine]: at Syk, the IC50 is 130 nM. The EC50 in experiment [1] turned out to be 1760 nM; on Ba/F3-Syk cells it was 355 nM.
Taken in the same sequence, the figures for `Cn1ccc(-c2cc(OC[C@@H]3CNCC4(CC4)O3)c3cccnc3c2)c1` [Compound 3.17, 7-(1-methyl-1H-pyrrol-3-yl)-5-{[(5S)-4-oxa-7-azaspiro[2.5]octan-5-yl]methoxy}quinoline] were 43.7 nM, 2220 nM and 51.8 nM.
`CC(C)(C)n1ccc(-c2cc3ncccc3c(OC[C@@H]3CNCCCO3)n2)c1` [Compound 2.69, 7-(1-tert-butyl-1H-pyrrol-3-yl)-5-{[(2S)-1,4-oxazepan-2-yl]methoxy}-1,6-naphthyridine]: the IC50 on Syk was found to be 30.1 nM. Besides, the EC50 is > 10000 nM in experiment [1] and 13.5 nM on Ba/F3-Syk cells.
On the same counts, the results for `C[C@@H](Oc1nc(-c2ccn(CC(F)F)c2)cc2ncccc12)[C@@H]1CNCCO1` [Compound 6.30, 7-[1-(2,2-difluoroethyl)-1H-pyrrol-3-yl]-5-[(1R)-1-[(2S)-morpholin-2-yl]ethoxy]-1,6-naphthyridine] are 14.1 nM, 1390 nM and 27.7 nM.
On the same counts, the results for `Cn1ccc(-c2cc3ncccc3c(OC[C@@H]3CNCC4(CC4)O3)n2)c1` [Compound 2.60, 7-(1-methyl-1H-pyrrol-3-yl)-5-{[(5S)-4-oxa-7-azaspiro[2.5]octan-5-yl]methoxy}-1,6-naphthyridine] are 24.6 nM, 4070 nM and 26.6 nM.
On the same counts, the results for `CC(C)[C@@H]1CNC[C@@H](COc2nc(-c3cnn(C(C)(C)C)c3)cc3ncccc23)O1` [Compound 2.98, 7-(1-tert-butyl-1H-pyrazol-4-yl)-5-{[(2S,6R)-6-(propan-2-yl)morpholin-2-yl]methoxy}-1,6-naphthyridine] are 28.3 nM, 846 nM and 18.6 nM.
